{
  "source": "patent US6420110B1",
  "about": "“Methods and reagents for isolating biologically active peptides” (GPC Biotech, Inc., priority 1998, dated 2002)",
  "tested_on": "bovine capillary endothelial (BCE) cells",
  "assay": "Inhibition of bFGF stimulated BCE cell proliferation in Transwells (CyQUANT)",
  "format": "cell-based",
  "conditions": "1 ng/ml bFGF, 72 hrs",
  "description": "COS-7 cells were transfected with pAM9-myc, pAM9-RGD and pAM9-K1 plasmids, respectively, that direct the expression and secretion of the Myc epitope-6xHis, the RGD and the angiostatin first kringle domain peptides. The transfected COS-7 cells were co-incubated in Transwells with BCE cells whose proliferation was stimulated by 1 ng/ml bFGF. As controls, untransfected COS-7 cells and bFGF stimulated BCE cells were similarly co-incubated and synthetic Myc-6xHis and RGD peptides as well as purified K1 were added to the media at the indicated concentrations. The proliferation of the bFGF stimulated BCE cells were measured 72 hrs later using the fluorescent CyQUANT proliferation kit (Molecular Probes).",
  "data": [
    {"sequence": "CDCRGDCFC [RGD peptide, positive control]", "values": [
      {"measurement": "inhibition of bFGF stimulated BCE cell proliferation", "setting": "peptide secreted from transfected COS-7 cells co-incubated in Transwells", "result": "inhibited"},
      {"measurement": "inhibition of bFGF stimulated BCE cell proliferation", "setting": "synthetic or purified peptide added to the media, untransfected COS-7 cells co-incubated", "result": "inhibited"}
    ]}
  ]
}
